According to patent US20240108557A1, “TOPICAL COMPOSITION USEFUL FOR THE DAILY CARE OF ACNE-PRONE SKIN” (Pierre Fabre Dermo-Cosmetique, priority 2021, published 2024):

Tested on: Stratum corneum
Assay: AFM elastic modulus of Stratum corneum in skin explants (keratolytic effect)
Design: species or system human
Conditions: three topical applications, succinic acid 0.6 wt %, lactic acid 0.36 wt %, alone or combined (ratio 1.67)
Experimental: Keratolytic effect was assessed by observing the skin biomechanical properties modulation (skin stiffness modulation) induced by the tested agents using Atomic Force Microscopy (AFM) in skin explants. • 1 explant by donor and treatment • 3 distinct areas were measured by explant • A minimum of 12 measures by aera
Skin punchs of 1.2 cm were made from breast skin of women between 35 and 43 years old. […] First and second application during 1 hour, and the third-one during 3 hours. […] Mechanical properties of skin explants cryosections have been assessed, at Stratum corneum and epidermis areas, by AFM measurements.
AFM indentation experiments were carried out with a Resolve Bioscope (Bruker Nano Surface, Santa Barbara, CA) that was mounted on an inverted optical DM18 (Leica) and a top view Bruker. All measurements of skin stiffness were performed using cantilevers with conical tips. The cantilever moved with the relief of the skin surface. This deformation was quantified by the deflection of the laser beam who are correlated with biomechanical parameters of skin surface samples. Quantitative measure of elastic modulus was used to assess Stratum corneum or epidermis cell-cell junctions stiffness after treatment.

Structure (SMILES)	inhibition of elastic modulus of Stratum corneum (stiffness reduction) compared to untreated control
CC(O)C(=O)O (centres unmarked) [lactic acid]	did not show any significant effect
O=C(O)CCC(=O)O [succinic acid]	did not show any significant effect
